System: TFEB
Assay: TFEB nuclear translocation assay, HeLa wt cells
Assay type: cell-based
Conditions: 2 hrs compound treatment, Table 1 does not say HeLa wt or TRPML1 KO
Procedure, shortened: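 Cells are plated overnight, exposed to compounds for 2 hrs at 37° C, fixed with 4% PFA, blocked, and stained overnight at 4° C with rabbit anti-TFEB. After Alexa 488 secondary and Hoechst, nuclei and a perinuclear ring are segmented to give a nuclear:ring intensity ratio and AC50.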

## O=S(=O)(Nc1cccc(Cl)c1N1CCC(c2ccc(Cl)cc2F)CC1)c1ccc2c(c1)CCC2 [Compound A-341, N-{3-chloro-2-[4-(4-chloro-2-fluorophenyl)piperidin-1-yl]phenyl}-2,3-dihydro-1H-indene-5-sulfonamide]
Homo sapiens, HeLa, 2 h
  AC50: ≤ 2000 nM

## CP(C)(=O)c1ccc(S(=O)(=O)Nc2cc(Cl)ccc2N2CCOCC2)cc1 [Compound A-284, N-[5-chloro-2-(morpholin-4-yl)phenyl]-4-(dimethylphosphoryl)benzene-1-sulfonamide]
Homo sapiens, HeLa, 2 h
  AC50: ≥ 10000 nM

## CC1(C)Cc2cc(S(=O)(=O)Nc3cccc(F)c3N3CCC(CN4C5CCC4COC5)CC3)ccc2O1 [Compound A-880, N-{3-fluoro-2-[4-({3-oxa-8-azabicyclo[3.2.1]octan-8-yl}methyl)piperidin-1-yl]phenyl}-2,2-dimethyl-2,3-dihydro-1-benzofuran-5-sulfonamide]
Homo sapiens, HeLa, 2 h
  AC50: ≤ 2000 nM

## CN(C)S(=O)(=O)c1ccc(S(=O)(=O)Nc2ccccc2N2CCC3(CC2)OC(=O)c2cc(F)cnc23)cc1 [Compound A-473, N4-(2-{3-fluoro-5-oxo-5H-spiro[furo[3,4-b]pyridine-7,4′-piperidin]-1′-yl}phenyl)-N1,N1-dimethylbenzene-1,4-disulfonamide]
Homo sapiens, HeLa, 2 h
  AC50: 2010 to 8000 nM

## CN(C)S(=O)(=O)c1ccc(S(=O)(=O)Nc2ccccc2N2CCC(O)(c3ccc(F)cc3F)CC2)cc1 [Compound A-141, N4-{2-[4-(2,4-difluorophenyl)-4-hydroxypiperidin-1-yl]phenyl}-N1,N1-dimethylbenzene-1,4-disulfonamide]
Homo sapiens, HeLa, 2 h
  AC50: ≤ 2000 nM

## CN(C)S(=O)(=O)c1ccc(S(=O)(=O)Nc2ccccc2N2CCN(C3CC3)CC2)cc1 [Compound A-52, N4-[2-(4-cyclopropylpiperazin-1-yl)phenyl]-N1,N1-dimethylbenzene-1,4-disulfonamide]
Homo sapiens, HeLa, 2 h
  AC50: ≤ 2000 nM

## CC(c1cccc(F)c1N1CCC(C)(C(F)F)CC1)S(=O)(=O)c1ccc(C(F)F)cc1 (single isomer, unassigned) [Compound A-963, 4-(difluoromethyl)-1-(2-(1-((4-(difluoromethyl)phenyl)sulfonyl)ethyl)-6-fluorophenyl)-4-methylpiperidine]
Homo sapiens, HeLa, 2 h
  AC50: 2010 to 8000 nM

## CC(N1CCN(c2ccccc2NS(=O)(=O)c2ccc(Cl)cc2)CC1)C(F)(F)F (stereo not shown) [Compound A-541, 4-chloro-N-{2-[4-(1,1,1-trifluoropropan-2-yl)piperazin-1-yl]phenyl}benzene-1-sulfonamide]
Homo sapiens, HeLa, 2 h
  AC50: ≤ 2000 nM

## CC(C)(C)S(=O)(=O)c1ccc(S(=O)(=O)Nc2ccccc2N2CCC(c3c(F)cccc3F)CC2)cc1 [Compound A-213, N-{2-[4-(2,6-difluorophenyl)piperidin-1-yl]phenyl}-4-(2-methylpropane-2-sulfonyl)benzene-1-sulfonamide]
Homo sapiens, HeLa, 2 h
  AC50: ≤ 2000 nM

## COCC1(C)CCN(c2ccccc2NS(=O)(=O)Cc2cccc3c2COC3)CC1 [Compound A-607, 1-(1,3-dihydro-2-benzofuran-4-yl)-N-{2-[4-(methoxymethyl)-4-methylpiperidin-1-yl]phenyl}methanesulfonamide]
Homo sapiens, HeLa, 2 h
  AC50: 2010 to 8000 nM

## CN(C)S(=O)(=O)c1ccc(S(=O)(=O)Nc2nc(N3CCN(c4ccc(Cl)cc4F)CC3)nn2C)cc1 [Compound A-68, N1-(3-(4-(4-chloro-2-fluorophenyl)piperazin-1-yl)-1-methyl-1H-1,2,4-triazol-5-yl)-N4,N4-dimethylbenzene-1,4-disulfonamide]
Homo sapiens, HeLa, 2 h
  AC50: ≥ 10000 nM

## CN(C)S(=N)(=O)c1ccc(S(=O)(=O)Nc2cccc(F)c2N2CCC(CN3CC4CCC(C3)O4)CC2)cc1 (stereo not shown) [Compound A-844, 4-({3-fluoro-2-[4-({8-oxa-3-azabicyclo[3.2.1]octan-3-yl}methyl)piperidin-1-yl]phenyl}sulfamoyl)-N,N-dimethylbenzene-1-sulfonoimidamide]
Homo sapiens, HeLa, 2 h
  AC50: ≤ 2000 nM

## CC(C)(C)C(=O)N1CCN(c2ccccc2NS(=O)(=O)Cc2cccc(Br)c2)CC1 [Compound A-485, 1-(3-bromophenyl)-N-{2-[4-(2,2-dimethylpropanoyl)piperazin-1-yl]phenyl}methanesulfonamide]
Homo sapiens, HeLa, 2 h
  AC50: 2010 to 8000 nM

## Cc1ccc(N2CCOCC2)c(NS(=O)(=O)Cc2ccc3c(c2)COCC3)c1 [Compound A-629, 1-(3,4-dihydro-1H-2-benzopyran-7-yl)-N-[5-methyl-2-(morpholin-4-yl)phenyl]methanesulfonamide]
Homo sapiens, HeLa, 2 h
  AC50: 2010 to 8000 nM

## CC(c1cccc(F)c1N1CCC(CN2CCC(F)(F)CC2)CC1)S(=O)(=O)c1ccc(S(=O)(=O)N(C)C)cc1 (stereo not shown) [Compound A-803, 4-((1-(2-(4-((4,4-difluoropiperidin-1-yl)methyl)piperidin-1-yl)-3-fluorophenyl)ethyl)sulfonyl)-N,N-dimethylbenzenesulfonamide]
  AC50: ≤ 2000 nM

## O=S(=O)(Nc1cc(Cl)ccc1N1CCOC2(CCOCC2)C1)c1ccc2c(c1)CCC2 [Compound A-343, N-(5-chloro-2-{1,9-dioxa-4-azaspiro[5.5]undecan-4-yl}phenyl)-2,3-dihydro-1H-indene-5-sulfonamide]
Homo sapiens, HeLa, 2 h
  AC50: 2010 to 8000 nM

## CP(=O)(Nc1ccccc1N1CCC(c2ccc(Cl)cc2F)CC1)c1ccccc1 (stereo not shown) [Compound A-66, 4-(4-chloro-2-fluorophenyl)-1-(2-{[methyl(phenyl)phosphoryl]amino}phenyl)piperidine]
Homo sapiens, HeLa, 2 h
  AC50: ≥ 10000 nM

## O=S(=O)(Nc1ccccc1N1CCC(c2ccc(Cl)cc2F)CC1)c1ccc(C(F)(F)F)cc1F [Compound A-159, N-{2-[4-(4-chloro-2-fluorophenyl)piperidin-1-yl]phenyl}-2-fluoro-4-(trifluoromethyl)benzene-1-sulfonamide]
Homo sapiens, HeLa, 2 h
  AC50: 2010 to 8000 nM

## O=S(=O)(Nc1ccccc1N1CCC(c2ccc(Cl)cc2F)CC1)c1cccc(F)c1 [Compound A-78, N-{2-[4-(4-chloro-2-fluorophenyl)piperidin-1-yl]phenyl}-3-fluorobenzene-1-sulfonamide]
Homo sapiens, HeLa, 2 h
  AC50: ≥ 10000 nM

## CN(C)S(=O)(=O)c1ccc(S(=O)(=O)Nc2ccccc2N2CCN(C(=O)C(C)(C)F)CC2)cc1 [Compound A-432, N4-{2-[4-(2-fluoro-2-methylpropanoyl)piperazin-1-yl]phenyl}-N1,N1-dimethylbenzene-1,4-disulfonamide]
Homo sapiens, HeLa, 2 h
  AC50: 2010 to 8000 nM

## CC(c1cccc(F)c1N1CCCCC1)S(=O)(=O)c1ccc(S(=O)(=O)N(C)C)cc1 (single isomer, unassigned) [Compound A-912, 4-((1-(3-fluoro-2-(piperidin-1-yl)phenyl)ethyl)sulfonyl)-N,N-dimethylbenzenesulfonamide]
  AC50: ≤ 2000 nM

## Cc1ccc(S(=O)(=O)Nc2ccccc2N2CCN(C(=O)C(C)c3ccccc3)CC2)cc1 (stereo not shown) [Compound A-334, 4-methyl-N-{2-[4-(2-phenylpropanoyl)piperazin-1-yl]phenyl}benzene-1-sulfonamide]
Homo sapiens, HeLa, 2 h
  AC50: 2010 to 8000 nM

## O=S(=O)(CC1CCC2(CCCC2)O1)Nc1cccc(Cl)c1N1CCOCC1 (stereo not shown) [Compound A-393, N-[3-chloro-2-(morpholin-4-yl)phenyl]-1-{1-oxaspiro[4.4]nonan-2-yl}methanesulfonamide]
Homo sapiens, HeLa, 2 h
  AC50: 8010 to 9990 nM

## CC1(C)CC2(CCN(c3ccccc3NS(=O)(=O)c3ccc4c(c3)C(C)(C)CO4)CC2)CO1 [Compound A-742, N-(2-{3,3-dimethyl-2-oxa-8-azaspiro[4.5]decan-8-yl}phenyl)-3,3-dimethyl-2,3-dihydro-1-benzofuran-5-sulfonamide]
Homo sapiens, HeLa, 2 h
  AC50: ≤ 2000 nM

## CN(C)S(=O)(=O)c1ccc(S(=O)(=O)Nc2ccnnc2N2CCC(c3ccc(Cl)cc3F)CC2)cc1 [Compound A-139, N4-{3-[4-(4-chloro-2-fluorophenyl)piperidin-1-yl]pyridazin-4-yl}-N1,N1-dimethylbenzene-1,4-disulfonamide]
Homo sapiens, HeLa, 2 h
  AC50: ≥ 10000 nM

— patent US20230104936A1, “TRPML MODULATORS” (Casma Therapeutics, Inc., priority 2019, published 2023)
